# Data reported in ChEMBL document CHEMBL1137480, “Synthesis and structure-activity relationship of 7-(substituted)-aminomethyl-4-quinolone-3-carboxylic acid derivatives” (2007).
# Experiments:
# Format in all cases: functional
# [1] = test system: Staphylococcus aureus; assay: Antibacterial activity against Staphylococcus aureus 26003 after 24 hrs by agar dilution method
# [2] = test system: Staphylococcus epidermidis; assay: Antibacterial activity against Staphylococcus epidermidis 26069 after 24 hrs by agar dilution method
# [3] = test system: Streptococcus pneumoniae; assay: Antibacterial activity against Streptococcus pneumoniae 31002 after 24 hrs by agar dilution method
# [4] = test system: Shigella boydii; assay: Antibacterial activity against Shigella boydii 51313 after 24 hrs by agar dilution method
# [5] = test system: Klebsiella pneumoniae; assay: Antibacterial activity against Klebsiella pneumoniae 46101 after 24 hrs by agar dilution method
# [6] = test system: Salmonella; assay: Antibacterial activity against […] 48107 after 24 hrs by agar dilution method
MIC [1],MIC [2],MIC [3],MIC [4],MIC [5],MIC [6],Compound
0.39 µg/mL,1.56 µg/mL,0.049 µg/mL,0.39 µg/mL,1.56 µg/mL,0.78 µg/mL,Cc1ccc(NCc2c(F)cc3c(=O)c(C(=O)O)cn(C4CC4)c3c2F)cc1
0.78 µg/mL,0.78 µg/mL,0.049 µg/mL,0.78 µg/mL,0.78 µg/mL,0.78 µg/mL,C[C@H]1COc2c(CNc3ccc(F)cc3)c(F)cc3c(=O)c(C(=O)O)cn1c23
> 6.25 µg/mL,> 6.25 µg/mL,3.13 µg/mL,0.39 µg/mL,0.195 µg/mL,0.39 µg/mL,CCNCc1c(F)cc2c(=O)c(C(=O)O)cn(CC)c2c1F
